Test results reported in ChEMBL document CHEMBL5303573, “Mapping human microbiome drug metabolism by gut bacteria and their genes” (Nature, 2019).

How the values were obtained:
[1] = The drug is tested on Bifidobacterium ruminantium strain: fecal isolate for biotransformation. The drug concentrations were measured before and after a 12-h incubation by liquid-chromatography-coupled mass spectrometry (LC–MS); details: 2 µM
[2] = The drug is tested on Collinsella aerofaciens strain: ATCC25986 for biotransformation. The drug concentrations were measured before and after a 12-h incubation by liquid-chromatography-coupled mass spectrometry (LC–MS); details: 2 µM
[3] = The drug is tested on Collinsella intestinalis strain: DSM13280 for biotransformation. The drug concentrations were measured before and after a 12-h incubation by liquid-chromatography-coupled mass spectrometry (LC–MS); details: 2 µM
[4] = The drug is tested on Bacteroides cellulosilyticus strain: DSM14838 for biotransformation. The drug concentrations were measured before and after a 12-h incubation by liquid-chromatography-coupled mass spectrometry (LC–MS); details: 2 µM
[5] = The drug is tested on Bacteroides coprophilus strain: DSM18228 for biotransformation. The drug concentrations were measured before and after a 12-h incubation by liquid-chromatography-coupled mass spectrometry (LC–MS); details: 2 µM
[6] = The drug is tested on Bacteroides fragilis strain: ATCC43859 for biotransformation. The drug concentrations were measured before and after a 12-h incubation by liquid-chromatography-coupled mass spectrometry (LC–MS); details: 2 µM
[7] = The drug is tested on Bacteroides pectinophilus strain: ATCC43243 for biotransformation. The drug concentrations were measured before and after a 12-h incubation by liquid-chromatography-coupled mass spectrometry (LC–MS); details: 2 µM
[8] = The drug is tested on Bacteroides uniformis strain: ATCC8492 for biotransformation. The drug concentrations were measured before and after a 12-h incubation by liquid-chromatography-coupled mass spectrometry (LC–MS); details: 2 µM
[9] = The drug is tested on Bacteroides vulgatus strain: ATCC8482 for biotransformation. The drug concentrations were measured before and after a 12-h incubation by liquid-chromatography-coupled mass spectrometry (LC–MS); details: phocaeicola vulgatus, 2 µM
[10] = The drug is tested on Bacteroides sp. WH2 strain: WH2 for biotransformation. The drug concentrations were measured before and after a 12-h incubation by liquid-chromatography-coupled mass spectrometry (LC–MS); details: bacteroides sp. wh2, 12 h, 2 µM
[11] = The drug is tested on Bacteroides xylanisolvens strain: DSM18836 for biotransformation. The drug concentrations were measured before and after a 12-h incubation by liquid-chromatography-coupled mass spectrometry (LC–MS); details: 2 µM
[12] = The drug is tested on Anaerococcus hydrogenalis strain: DSM7454 for biotransformation. The drug concentrations were measured before and after a 12-h incubation by liquid-chromatography-coupled mass spectrometry (LC–MS); details: 2 µM
[13] = The drug is tested on Anaerotruncus colihominis strain: DSM17241 for biotransformation. The drug concentrations were measured before and after a 12-h incubation by liquid-chromatography-coupled mass spectrometry (LC–MS); details: 2 µM
[14] = The drug is tested on Blautia luti strain: DSM14534 for biotransformation. The drug concentrations were measured before and after a 12-h incubation by liquid-chromatography-coupled mass spectrometry (LC–MS); assay type: ADME; parameters: dose 2 uM, timepoint 0 vs 12 hours; details: 2 µM
[15] = The drug is tested on Clostridium ramosum strain: DSM1402 for biotransformation. The drug concentrations were measured before and after a 12-h incubation by liquid-chromatography-coupled mass spectrometry (LC–MS); details: thomasclavelia ramosa, 2 µM
[16] = The drug is tested on Clostridium scindens strain: ATCC35704 for biotransformation. The drug concentrations were measured before and after a 12-h incubation by liquid-chromatography-coupled mass spectrometry (LC–MS); details: 2 µM
[17] = The drug is tested on Clostridium sporogenes strain: ATCC15579 for biotransformation. The drug concentrations were measured before and after a 12-h incubation by liquid-chromatography-coupled mass spectrometry (LC–MS); details: 2 µM
[18] = The drug is tested on Clostridium symbiosum strain: ATCC14940 for biotransformation. The drug concentrations were measured before and after a 12-h incubation by liquid-chromatography-coupled mass spectrometry (LC–MS); details: 2 µM
[19] = The drug is tested on Coprococcus comes strain: ATCC27758 for biotransformation. The drug concentrations were measured before and after a 12-h incubation by liquid-chromatography-coupled mass spectrometry (LC–MS); assay type: ADME; parameters: dose 2 uM, timepoint 0 vs 12 hours; details: 2 µM
[20] = The drug is tested on Dorea formicigenerans strain: ATCC27755 for biotransformation. The drug concentrations were measured before and after a 12-h incubation by liquid-chromatography-coupled mass spectrometry (LC–MS); details: 2 µM
[21] = The drug is tested on Enterococcus faecalis strain: V583 for biotransformation. The drug concentrations were measured before and after a 12-h incubation by liquid-chromatography-coupled mass spectrometry (LC–MS); details: 2 µM
[22] = The drug is tested on Eubacterium hallii strain: DSM3353 for biotransformation. The drug concentrations were measured before and after a 12-h incubation by liquid-chromatography-coupled mass spectrometry (LC–MS); details: anaerobutyricum hallii, 2 µM
[23] = The drug is tested on Eubacterium rectale strain: ATCC33656 for biotransformation. The drug concentrations were measured before and after a 12-h incubation by liquid-chromatography-coupled mass spectrometry (LC–MS); details: agathobacter rectalis, 2 µM
[24] = The drug is tested on Eubacterium ventriosum strain: ATCC27560 for biotransformation. The drug concentrations were measured before and after a 12-h incubation by liquid-chromatography-coupled mass spectrometry (LC–MS); assay type: ADME; parameters: dose 2 uM, timepoint 0 vs 12 hours; details: 2 µM
[25] = The drug is tested on Ruminococcus gnavus strain: ATCC29149 for biotransformation. The drug concentrations were measured before and after a 12-h incubation by liquid-chromatography-coupled mass spectrometry (LC–MS); details: mediterraneibacter gnavus, 2 µM
[26] = The drug is tested on Ruminococcus lactaris strain: ATCC29176 for biotransformation. The drug concentrations were measured before and after a 12-h incubation by liquid-chromatography-coupled mass spectrometry (LC–MS); details: 2 µM
[27] = The drug is tested on Ruminococcus torques strain: ATCC27756 for biotransformation. The drug concentrations were measured before and after a 12-h incubation by liquid-chromatography-coupled mass spectrometry (LC–MS); assay type: ADME; parameters: dose 2 uM, timepoint 0 vs 12 hours; details: 2 µM
[28] = The drug is tested on Subdoligranulum variabile strain: DSM15176 for biotransformation. The drug concentrations were measured before and after a 12-h incubation by liquid-chromatography-coupled mass spectrometry (LC–MS); details: 2 µM
[29] = The drug is tested on Edwardsiella tarda strain: ATCC23685 for biotransformation. The drug concentrations were measured before and after a 12-h incubation by liquid-chromatography-coupled mass spectrometry (LC–MS); details: 2 µM
[30] = The drug is tested on Providencia stuartii strain: ATCC25827 for biotransformation. The drug concentrations were measured before and after a 12-h incubation by liquid-chromatography-coupled mass spectrometry (LC–MS); details: 2 µM
[31] = bifidobacterium adolescentis, 12 h, 2 µM
Description: The drug is tested on Bifidobacterium adolescentis strain: ATCC 15703 for biotransformation. The drug concentrations were measured before and after a 12-h incubation by liquid-chromatography-coupled mass spectrometry (LC–MS)

[32] = bacteroides eggerthii, 12 h, 2 µM
Description: The drug is tested on Bacteroides eggerthii strain: DSM20697 for biotransformation. The drug concentrations were measured before and after a 12-h incubation by liquid-chromatography-coupled mass spectrometry (LC–MS)

[33] = bacteroides fragilis, 12 h, 2 µM
Description: The drug is tested on Bacteroides fragilis strain: NCTC 9343 for biotransformation. The drug concentrations were measured before and after a 12-h incubation by liquid-chromatography-coupled mass spectrometry (LC–MS)

[34] = bacteroides intestinalis, 12 h, 2 µM
Description: The drug is tested on Bacteroides intestinalis strain: DSM17393 for biotransformation. The drug concentrations were measured before and after a 12-h incubation by liquid-chromatography-coupled mass spectrometry (LC–MS)

[35] = parabacteroides johnsonii, 12 h, 2 µM
Description: The drug is tested on Parabacteroides johnsonii strain: DSM18315 for biotransformation. The drug concentrations were measured before and after a 12-h incubation by liquid-chromatography-coupled mass spectrometry (LC–MS)

[36] = segatella copri, 12 h, 2 µM
Description: The drug is tested on Prevotella copri strain: DSM18205 for biotransformation. The drug concentrations were measured before and after a 12-h incubation by liquid-chromatography-coupled mass spectrometry (LC–MS)

[37] = anaerostipes sp., 12 h, 2 µM
Description: The drug is tested on Anaerostipes sp. strain: fecal isolate for biotransformation. The drug concentrations were measured before and after a 12-h incubation by liquid-chromatography-coupled mass spectrometry (LC–MS)

[38] = victivallis vadensis, 12 h, 2 µM
Description: The drug is tested on Victivallis vadensis strain: ATCC BAA-548 for biotransformation. The drug concentrations were measured before and after a 12-h incubation by liquid-chromatography-coupled mass spectrometry (LC–MS)

[39] = akkermansia muciniphila, 12 h, 2 µM
Description: The drug is tested on Akkermansia muciniphila strain: ATCC BAA-835 for biotransformation. The drug concentrations were measured before and after a 12-h incubation by liquid-chromatography-coupled mass spectrometry (LC–MS)

[40] = The drug is tested on Bifidobacterium breve strain: DSM20213 for biotransformation. The drug concentrations were measured before and after a 12-h incubation by liquid-chromatography-coupled mass spectrometry (LC–MS); details: 2 µM
[41] = The drug is tested on Eggerthella lenta strain: ATCC25559 for biotransformation. The drug concentrations were measured before and after a 12-h incubation by liquid-chromatography-coupled mass spectrometry (LC–MS); details: 2 µM
[42] = The drug is tested on Alistipes indistinctus strain: DSM22520 for biotransformation. The drug concentrations were measured before and after a 12-h incubation by liquid-chromatography-coupled mass spectrometry (LC–MS); details: 2 µM
[43] = The drug is tested on Bacteroides caccae strain: ATCC43185 for biotransformation. The drug concentrations were measured before and after a 12-h incubation by liquid-chromatography-coupled mass spectrometry (LC–MS); details: 2 µM
[44] = The drug is tested on Bacteroides dorei strain: DSM17855 for biotransformation. The drug concentrations were measured before and after a 12-h incubation by liquid-chromatography-coupled mass spectrometry (LC–MS); details: phocaeicola dorei, 2 µM
[45] = The drug is tested on Bacteroides fragilis strain: HMW610 for biotransformation. The drug concentrations were measured before and after a 12-h incubation by liquid-chromatography-coupled mass spectrometry (LC–MS); details: 2 µM
[46] = The drug is tested on Bacteroides ovatus strain: ATCC8483 for biotransformation. The drug concentrations were measured before and after a 12-h incubation by liquid-chromatography-coupled mass spectrometry (LC–MS); details: 2 µM
[47] = The drug is tested on Enterobacter cancerogenus strain: ATCC35316 for biotransformation. The drug concentrations were measured before and after a 12-h incubation by liquid-chromatography-coupled mass spectrometry (LC–MS); details: 2 µM
[48] = The drug is tested on Providencia rettgeri strain: DSM1131 for biotransformation. The drug concentrations were measured before and after a 12-h incubation by liquid-chromatography-coupled mass spectrometry (LC–MS); assay type: ADME; parameters: dose 2 uM, timepoint 0 vs 12 hours; details: 2 µM
[49] = bacteroides fragilis, 12 h, 2 µM; remark: listed apart in the source
Description: The drug is tested on Bacteroides fragilis strain: DS-208 for biotransformation. The drug concentrations were measured before and after a 12-h incubation by liquid-chromatography-coupled mass spectrometry (LC–MS)

[50] = bacteroides thetaiotaomicron, 12 h, 2 µM
Description: The drug is tested on Bacteroides thetaiotaomicron strain: VPI-5482 for biotransformation. The drug concentrations were measured before and after a 12-h incubation by liquid-chromatography-coupled mass spectrometry (LC–MS)

[51] = bacteroides thetaiotaomicron, 12 h, 2 µM; remark: listed apart in the source
Description: The drug is tested on Bacteroides thetaiotaomicron strain: 3731 for biotransformation. The drug concentrations were measured before and after a 12-h incubation by liquid-chromatography-coupled mass spectrometry (LC–MS)

[52] = bacteroides thetaiotaomicron, 12 h, 2 µM; remark: listed apart in the source
Description: The drug is tested on Bacteroides thetaiotaomicron strain: 7330 for biotransformation. The drug concentrations were measured before and after a 12-h incubation by liquid-chromatography-coupled mass spectrometry (LC–MS)

[53] = parabacteroides distasonis, 12 h, 2 µM
Description: The drug is tested on Parabacteroides distasonis strain: ATCC8503 for biotransformation. The drug concentrations were measured before and after a 12-h incubation by liquid-chromatography-coupled mass spectrometry (LC–MS)

[54] = enterocloster bolteae, 12 h, 2 µM
Description: The drug is tested on Clostridium bolteae strain: ATCCBAA-613 for biotransformation. The drug concentrations were measured before and after a 12-h incubation by liquid-chromatography-coupled mass spectrometry (LC–MS)

Measured: Bacterial Biotransformation

CCOC(=O)[C@H](CCc1ccccc1)N[C@@H](C)C(=O)N1[C@H](C(=O)O)C[C@@H]2CCC[C@@H]21
Compound metabolized: [4] | [6] | [8] | [9] | [11]
not listed: [40] | [41] | [42] | [43] | [44] | [45] | [46] | [47] | [48] | [49] | [50] | [51] | [52] | [53] | [54]
Compound NOT metabolized: all other assays above

CCN(CC)CCOC(=O)C1(C2CCCCC2)CCCCC1 [DICYCLOMINE]
Compound metabolized: [41] | [44] | [9] | [11] | [27] | [53]
not listed: [1] | [4] | [8] | [16] | [18] | [23] | [24] | [28] | [29] | [30] | [34] | [35] | [39]
Compound NOT metabolized: all other assays above
